According to the supplement of paper PMC10307832:

How the values were obtained:
Test in all cases: relative viability (nuclei count vs DMSO), 5 days (fraction); higher = more cells survive
TGX 221 + Foretinib = compound: CC1=CN2C(=O)C=C(N=C2C(=C1)C(C)NC3=CC=CC=C3)N4CCOCC4 [TGX 221] + COc1cc2c(Oc3ccc(NC(=O)C4(C(=O)Nc5ccc(F)cc5)CC4)cc3F)ccnc2cc1OCCCN1CCOCC1 [Foretinib] (partner 0.25 µM)
Outline: (§1)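 Lung cancer cell lines were pin-tool dosed in 1536-well plates on the day after seeding, with either a lone drug or a fixed anchor-drug dose plus five library-drug doses (not always all listed) in √10 steps. Nuclei were counted on 4× images after 5 days. Relative viability is the ratio of treated-well to vehicle-well nuclei counts, with each value a median of duplicate plates.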

TGX 221 + Bortezomib = compound: CC1=CN2C(=O)C=C(N=C2C(=C1)C(C)NC3=CC=CC=C3)N4CCOCC4 [TGX 221] + CC(C)C[C@H](NC(=O)[C@H](Cc1ccccc1)NC(=O)c1cnccn1)B(O)O [Bortezomib] (partner 0.002 µM)
Outline: as §1

[1] = compound: C1=CC=C(C(=C1)C2=CC=C(C=C2)C3=CSC4=C3C(=C(C(=O)N4)C#N)O)O + Nc1ncn([C@H]2C[C@H](O)[C@@H](CO)O2)c(=O)n1 [Decitabine] (partner 2 µM)
Outline: as §1

## NCI-H650
TGX 221 + Foretinib; first compound 0.08 µM
  relative viability: 0.941
TGX 221 + Foretinib; first compound 0.253 µM
  relative viability: 0.944
TGX 221 + Foretinib; first compound 0.8 µM
  relative viability: 0.904
TGX 221 + Foretinib; first compound 2.53 µM
  relative viability: 0.964
TGX 221 + Foretinib; first compound 8 µM
  relative viability: 0.976
TGX 221 + Bortezomib; first compound 0.08 µM
  relative viability: 0.697
TGX 221 + Bortezomib; first compound 0.253 µM
  relative viability: 0.748
TGX 221 + Bortezomib; first compound 0.8 µM
  relative viability: 0.721
TGX 221 + Bortezomib; first compound 2.53 µM
  relative viability: 0.639
TGX 221 + Bortezomib; first compound 8 µM
  relative viability: 0.791
[1]; first compound 0.08 µM
  relative viability: 0.297
[1]; first compound 0.253 µM
  relative viability: 0.333
[1]; first compound 0.8 µM
  relative viability: 0.307
[1]; first compound 2.53 µM
  relative viability: 0.312
[1]; first compound 8 µM
  relative viability: 0.315

## NCI-H460
TGX 221 + Foretinib; first compound 0.08 µM
  relative viability: 1.02
TGX 221 + Foretinib; first compound 0.253 µM
  relative viability: 0.968
TGX 221 + Foretinib; first compound 0.8 µM
  relative viability: 1.14
TGX 221 + Foretinib; first compound 2.53 µM
  relative viability: 0.957
TGX 221 + Foretinib; first compound 8 µM
  relative viability: 0.83
TGX 221 + Bortezomib; first compound 0.08 µM
  relative viability: 0.724
TGX 221 + Bortezomib; first compound 0.253 µM
  relative viability: 0.922
TGX 221 + Bortezomib; first compound 0.8 µM
  relative viability: 1.02
TGX 221 + Bortezomib; first compound 2.53 µM
  relative viability: 1.11
TGX 221 + Bortezomib; first compound 8 µM
  relative viability: 1
[1]; first compound 0.08 µM
  relative viability: 0.387
[1]; first compound 0.253 µM
  relative viability: 0.437
[1]; first compound 0.8 µM
  relative viability: 0.531
[1]; first compound 2.53 µM
  relative viability: 0.5
[1]; first compound 8 µM
  relative viability: 0.398

## HOP-62
TGX 221 + Foretinib; first compound 0.08 µM
  relative viability: 1.09
TGX 221 + Foretinib; first compound 0.253 µM
  relative viability: 1.1
TGX 221 + Foretinib; first compound 0.8 µM
  relative viability: 1.05
TGX 221 + Foretinib; first compound 2.53 µM
  relative viability: 1.15
TGX 221 + Foretinib; first compound 8 µM
  relative viability: 1.08
TGX 221 + Bortezomib; first compound 0.08 µM
  relative viability: 0.605
TGX 221 + Bortezomib; first compound 0.253 µM
  relative viability: 0.85
TGX 221 + Bortezomib; first compound 0.8 µM
  relative viability: 0.788
TGX 221 + Bortezomib; first compound 2.53 µM
  relative viability: 0.847
TGX 221 + Bortezomib; first compound 8 µM
  relative viability: 0.93
[1]; first compound 0.08 µM
  relative viability: 0.218
[1]; first compound 0.253 µM
  relative viability: 0.238
[1]; first compound 0.8 µM
  relative viability: 0.221
[1]; first compound 2.53 µM
  relative viability: 0.238
[1]; first compound 8 µM
  relative viability: 0.211

## NCI-H1975
TGX 221 + Foretinib; first compound 0.08 µM
  relative viability: 0.862
TGX 221 + Foretinib; first compound 0.253 µM
  relative viability: 0.899
TGX 221 + Foretinib; first compound 0.8 µM
  relative viability: 0.965
TGX 221 + Foretinib; first compound 2.53 µM
  relative viability: 0.841
TGX 221 + Foretinib; first compound 8 µM
  relative viability: 0.797
TGX 221 + Bortezomib; first compound 0.08 µM
  relative viability: 0.459
TGX 221 + Bortezomib; first compound 0.253 µM
  relative viability: 0.351
TGX 221 + Bortezomib; first compound 0.8 µM
  relative viability: 0.384
TGX 221 + Bortezomib; first compound 2.53 µM
  relative viability: 0.39
TGX 221 + Bortezomib; first compound 8 µM
  relative viability: 0.305
[1]; first compound 0.08 µM
  relative viability: 0.384
[1]; first compound 0.253 µM
  relative viability: 0.4
[1]; first compound 0.8 µM
  relative viability: 0.41
[1]; first compound 2.53 µM
  relative viability: 0.403
[1]; first compound 8 µM
  relative viability: 0.426

## NCI-H838
TGX 221 + Foretinib; first compound 0.08 µM
  relative viability: 1.04
TGX 221 + Foretinib; first compound 0.253 µM
  relative viability: 0.952
TGX 221 + Foretinib; first compound 0.8 µM
  relative viability: 0.945
TGX 221 + Foretinib; first compound 2.53 µM
  relative viability: 0.799
TGX 221 + Foretinib; first compound 8 µM
  relative viability: 0.7
TGX 221 + Bortezomib; first compound 0.08 µM
  relative viability: 0.751
TGX 221 + Bortezomib; first compound 0.253 µM
  relative viability: 0.853
TGX 221 + Bortezomib; first compound 0.8 µM
  relative viability: 0.713
TGX 221 + Bortezomib; first compound 2.53 µM
  relative viability: 0.712
TGX 221 + Bortezomib; first compound 8 µM
  relative viability: 0.544
[1]; first compound 0.08 µM
  relative viability: 0.456
[1]; first compound 0.253 µM
  relative viability: 0.5
[1]; first compound 0.8 µM
  relative viability: 0.483
[1]; first compound 2.53 µM
  relative viability: 0.457
[1]; first compound 8 µM
  relative viability: 0.417

## NCI-H2085
TGX 221 + Foretinib; first compound 0.08 µM
  relative viability: 1.06
TGX 221 + Foretinib; first compound 0.253 µM
  relative viability: 0.845
TGX 221 + Foretinib; first compound 0.8 µM
  relative viability: 0.96
TGX 221 + Foretinib; first compound 2.53 µM
  relative viability: 0.428
TGX 221 + Foretinib; first compound 8 µM
  relative viability: 0.401
TGX 221 + Bortezomib; first compound 0.08 µM
  relative viability: 1.05
TGX 221 + Bortezomib; first compound 0.253 µM
  relative viability: 0.856
TGX 221 + Bortezomib; first compound 0.8 µM
  relative viability: 0.889
TGX 221 + Bortezomib; first compound 2.53 µM
  relative viability: 0.809
TGX 221 + Bortezomib; first compound 8 µM
  relative viability: 0.724
[1]; first compound 0.08 µM
  relative viability: 0.543
[1]; first compound 0.253 µM
  relative viability: 0.615
[1]; first compound 0.8 µM
  relative viability: 0.499
[1]; first compound 2.53 µM
  relative viability: 0.528
[1]; first compound 8 µM
  relative viability: 0.495

## NCI-H3122
TGX 221 + Foretinib; first compound 0.08 µM
  relative viability: 0.967
TGX 221 + Foretinib; first compound 0.253 µM
  relative viability: 0.931
TGX 221 + Foretinib; first compound 0.8 µM
  relative viability: 0.957
TGX 221 + Foretinib; first compound 2.53 µM
  relative viability: 0.949
TGX 221 + Foretinib; first compound 8 µM
  relative viability: 1.01
TGX 221 + Bortezomib; first compound 0.08 µM
  relative viability: 1.02
TGX 221 + Bortezomib; first compound 0.253 µM
  relative viability: 1.04
TGX 221 + Bortezomib; first compound 0.8 µM
  relative viability: 0.969
TGX 221 + Bortezomib; first compound 2.53 µM
  relative viability: 0.941
TGX 221 + Bortezomib; first compound 8 µM
  relative viability: 1.02
[1]; first compound 0.08 µM
  relative viability: 0.513
[1]; first compound 0.253 µM
  relative viability: 0.435
[1]; first compound 0.8 µM
  relative viability: 0.362
[1]; first compound 2.53 µM
  relative viability: 0.421
[1]; first compound 8 µM
  relative viability: 0.535

## HCC-15
TGX 221 + Foretinib; first compound 0.08 µM
  relative viability: 0.993
TGX 221 + Foretinib; first compound 0.253 µM
  relative viability: 0.964
TGX 221 + Foretinib; first compound 0.8 µM
  relative viability: 1
TGX 221 + Foretinib; first compound 2.53 µM
  relative viability: 0.973
TGX 221 + Foretinib; first compound 8 µM
  relative viability: 1
TGX 221 + Bortezomib; first compound 0.08 µM
  relative viability: 1.02
TGX 221 + Bortezomib; first compound 0.253 µM
  relative viability: 0.953
TGX 221 + Bortezomib; first compound 0.8 µM
  relative viability: 0.93
TGX 221 + Bortezomib; first compound 2.53 µM
  relative viability: 1.04
TGX 221 + Bortezomib; first compound 8 µM
  relative viability: 1.06
[1]; first compound 0.08 µM
  relative viability: 0.444
[1]; first compound 0.253 µM
  relative viability: 0.671
[1]; first compound 0.8 µM
  relative viability: 0.625
[1]; first compound 2.53 µM
  relative viability: 0.814
[1]; first compound 8 µM
  relative viability: 0.494

## LU99A
TGX 221 + Foretinib; first compound 0.08 µM
  relative viability: 0.68
TGX 221 + Foretinib; first compound 0.253 µM
  relative viability: 0.902
TGX 221 + Foretinib; first compound 0.8 µM
  relative viability: 0.755
TGX 221 + Foretinib; first compound 2.53 µM
  relative viability: 0.917
TGX 221 + Foretinib; first compound 8 µM
  relative viability: 0.953
TGX 221 + Bortezomib; first compound 0.08 µM
  relative viability: 1.06
TGX 221 + Bortezomib; first compound 0.253 µM
  relative viability: 0.887
TGX 221 + Bortezomib; first compound 0.8 µM
  relative viability: 1.04
TGX 221 + Bortezomib; first compound 2.53 µM
  relative viability: 1.04
TGX 221 + Bortezomib; first compound 8 µM
  relative viability: 1.09
[1]; first compound 0.08 µM
  relative viability: 0.894
[1]; first compound 0.253 µM
  relative viability: 0.523
[1]; first compound 0.8 µM
  relative viability: 0.961
[1]; first compound 2.53 µM
  relative viability: 0.777
[1]; first compound 8 µM
  relative viability: 1.02
